Results reported in PubChem BioAssay (NCI).
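Compound exposure: 48 hours, 5 concentrations, 96-well plates. TGI is the concentration that stops growth completely.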

Experiments:
Test in all cases: growth of human tumour cells (NCI), 48 h
MOLT-4 leukemia = system: MOLT-4 leukemia
LOX IMVI melanoma = system: LOX IMVI melanoma
MALME-3M melanoma = system: MALME-3M melanoma
T-47D breast = system: T-47D breast
SK-MEL-5 melanoma = system: SK-MEL-5 melanoma
CAKI-1 renal = system: CAKI-1 renal
CCRF-CEM leukemia = system: CCRF-CEM leukemia
SN12C renal = system: SN12C renal
RPMI-8226 leukemia = system: RPMI-8226 leukemia
IGROV1 ovarian = system: IGROV1 ovarian

SMILES	TGI (MOLT-4 leukemia) [µM]	TGI (LOX IMVI melanoma) [µM]	TGI (MALME-3M melanoma) [µM]	TGI (T-47D breast) [µM]	TGI (SK-MEL-5 melanoma) [µM]	TGI (CAKI-1 renal) [µM]	TGI (CCRF-CEM leukemia) [µM]	TGI (SN12C renal) [µM]	TGI (RPMI-8226 leukemia) [µM]	TGI (IGROV1 ovarian) [µM]
O=C1N=C2SC(=S)NC(=S)N2NC12c1ccccc1-c1ccccc12	> 10	> 10	> 10	> 10	> 10	> 10	> 10	> 10	> 10	> 10
Nc1nc(Cl)cc(NCC2(O)CC2)n1	> 100	> 100	> 100	> 100	> 100	> 100	> 100	> 100	> 100	> 100
Cc1ccc2c(c1)-c1c(C#N)c(N)nc(-c3ccc(Cl)cc3)c1CCS2(=O)=O	68.7	> 100	> 100	> 100	> 68	> 100	> 23.7	> 100	8.45	> 100
c1ccc2c(c1)Sc1nccc3ccnc-2c13	56.6	> 100	> 100	> 100	> 100	41	> 100	> 100	> 100	> 100
Cc1[nH]c(=O)nc(NCCNCCO)c1C(=O)Nc1cccc2cc3ccccc3cc12	> 100	> 100	> 100	> 100	> 100	> 100	> 100	> 100	> 100	> 100
CCP(=O)(OC)C1=CCN(C(=O)OCC[Si](C)(C)C)CC1 (configuration not stated)	> 100	> 100	> 100	> 100	> 100	> 100	> 100	–	> 100	> 100
COc1ccc2nc(/C(N)=C\C#N)ccc2c1	88.5	> 100	> 100	76.2	> 100	> 100	> 100	> 100	> 100	> 100
O=c1c(Cc2ccc(Cl)cc2)nnc2sc(-c3ccc(-c4ccc(F)c(Cl)c4)o3)nn12	> 100	> 100	> 100	> 100	> 100	> 100	> 100	> 100	> 100	> 100
CC(=O)OCC1OC(n2c(-c3ccccc3)c(N=Nc3ccccc3)c(C)c(C#N)c2=S)C(OC(C)=O)C(OC(C)=O)C1OC(C)=O (configuration not stated)	> 100	> 100	> 100	> 100	> 100	> 100	> 100	> 100	> 100	> 100
COc1ccc(OC2OC(CO)C(OCc3ccccc3)C(OCc3ccccc3)C2OCc2ccccc2)cc1 (configuration not stated)	72.9	> 100	> 100	> 100	> 100	> 100	> 100	> 100	> 100	> 100
COC(=O)C1C(C(=O)OC)C2(OC(c3ccc(Cl)cc3)=CC2=O)C12OC(c1ccc(Cl)cc1)=CC2=O (configuration not stated)	49.2	57.4	31.6	63.3	37.9	59	8.23	52.8	37.2	47.7
CC1C(NNc2ccccc2)Oc2cc3c(cc2C1c1ccccc1O)OCO3 (configuration not stated)	19.2	28.6	10.4	16.2	24.1	13.7	13	20.1	24.7	19.3
COc1cccc2c1C(=O)c1c(O)c3c(c(O)c1C2=O)C[C@H](O)C[C@@H]3OC1CC(N)C(O)C(C)O1 (some centres not stated)	0.144	2.92	3.57	15.3	2.22	4.83	6.06	–	8.8	12.4
C=C1C(OC2O[C@@H]3O[C@@]4(C)CC[C@H]5[C@H](C)CC[C@@H](C2=C)[C@@]35O4)O[C@@H]2O[C@@]3(C)CC[C@H]4[C@H](C)CC[C@@H]1[C@@]24O3 (some centres not stated)	> 50	> 50	> 50	> 50	> 50	> 50	> 50	> 50	> 50	> 50
CCCCSc1nsc(N(C(=O)c2ccccc2)C(=O)c2ccccc2)n1	59.5	> 100	71.1	> 100	36.6	> 100	> 100	> 100	47.2	> 100
C=C(C)OCOCCOC	> 100	> 100	> 100	> 100	> 100	> 100	> 100	> 100	> 100	> 100
O=C(/C=C/C(=O)N1CCCC1)N1CCCC1	> 100	> 100	> 100	> 100	> 100	> 100	> 100	> 100	> 100	> 100

SMILES	TGI (MOLT-4 leukemia) [µM]	TGI (LOX IMVI melanoma) [µM]	TGI (MALME-3M melanoma) [µM]	TGI (T-47D breast) [µM]	TGI (SK-MEL-5 melanoma) [µM]	TGI (CAKI-1 renal) [µM]	TGI (CCRF-CEM leukemia) [µM]	TGI (SN12C renal) [µM]	TGI (RPMI-8226 leukemia) [µM]	TGI (IGROV1 ovarian) [µM]
O=C1NC2CCCCC2N=C1CC(=O)c1ccc(Br)cc1 (configuration not stated)	> 100	> 100	> 100	> 100	> 100	> 100	> 100	> 100	7.16	> 100
CO[C@H]1SC[C@H](OC(C)=O)[C@H](OC(C)=O)[C@H]1OC(C)=O	> 100	> 100	> 100	> 100	> 100	> 100	> 100	> 100	> 100	> 100
CC(C)c1cccc(C(C)C)c1NC(=O)/C(CC(=O)CC(c1ccccc1)c1c(O)c2ccccc2oc1=O)=N/O (configuration not stated)	> 100	> 100	> 100	> 100	> 100	> 100	> 100	> 100	> 100	> 100
CCOc1ccc(Nc2nc(N)nc(N)c2N)cc1	> 100	> 100	66.2	54.3	> 100	70.3	> 100	–	38.1	28.6
COc1ccc(/C=c2\s/c(=C3/SC(=S)N(c4ccccc4)C3=O)n(-c3ccccc3)c2=O)cc1	72.8	> 100	> 100	> 100	> 100	> 100	77.4	> 100	> 100	75.9
O=S(=O)(c1cc(Cl)ccc1Cl)n1ccnc1	> 100	> 100	> 100	> 100	53.9	> 100	> 100	84.4	91.6	> 100
CN(C)CCCNC(=O)c1cc(NC(=O)c2cc(NC(=O)CCCn3c4ccccc4c4ccccc43)cn2C)cn1C	> 23.1	> 50.9	> 49	28	19.6	43.5	> 100	33.2	39.3	> 75.9
CC1CCC2(NC1)OC1CC3C4CC=C5CC(OC6OC(CO)C(OC7OC(C)C(O)C(O)C7O)C(O)C6OC6OC(C)C(O)C(O)C6O)CCC5(C)C4CCC3(C)C1C2C (configuration not stated)	26.7	19.9	9.23	29	33.9	8.66	> 55.7	4.83	32.5	15.5
N#CC1(O)CCCCCCCCCCC1	> 100	> 100	> 100	> 100	> 100	> 100	> 100	> 100	> 100	> 100
Cc1cc(C)c(S(=O)(=O)N(CCCN)OCCCON(CCCN)S(=O)(=O)c2c(C)cc(C)cc2C)c(C)c1	10.7	3.11	2.61	3.36	> 42.8	29.3	16.8	13.6	6.55	3.86
O=c1[nH]c2nc3ccccc3nc2[nH]c1=O	> 100	> 100	> 100	> 100	> 100	> 100	> 100	> 100	> 100	> 100
COc1cc(CC(C)NC(C)=O)cc(OC)c1 (configuration not stated)	> 100	> 100	> 100	> 100	> 100	> 100	> 100	> 100	> 100	> 100
O=C(CCc1cc(O)cc(O)c1)NCCCNC(=O)CCc1cc(O)cc(O)c1	> 100	> 100	> 100	> 100	> 100	> 100	> 100	> 100	> 100	> 100
CS(=O)(=O)Nc1ccc2c(c1)N(S(C)(=O)=O)CC2CCl (configuration not stated)	> 100	> 100	> 100	> 100	> 100	> 100	> 100	> 100	> 100	> 100
COc1ccccc1C1Nn2c(nc3ccccc3c2=O)N1c1ccc(C)cc1 (configuration not stated)	11.4	20.8	38.7	21	22.5	24.1	24.7	21.7	25.9	19.8
O=c1nc2c(c(-c3ccc(Br)cc3)[nH]1)COC/C2=C\c1ccc(Br)cc1	> 50	> 50	> 50	> 50	> 50	> 50	> 50	> 50	> 50	> 50
C/C=C(/C)C(=O)OC1CC(C)[C@H]2CC(=O)C(C)=C2CC1C(C)(C)OC(C)=O (some centres not stated)	76.8	36.2	54	46.2	29.7	> 100	65.8	> 100	60.8	> 100
